Data reported in article PMC12624573, “The antigen presentation landscape of cytokine-stressed human pancreatic islets” (Cell reports, 2025).

Each sequence was assayed on CD8+ T cells from PBMC (assay: IFN-γ ELISpot, PBMC-derived in vitro expanded CD8+ T cell lines). Conditions: not given.
Format: cell-based, human
Design: key to T cell recognition by PBMC from a T1D donor: E: T cell recognition by PBMC from a T1D donor was tested and verified; see Figure 5

Row | Sequence | IFN-γ ELISpot response of expanded CD8+ T cells
1 | TLDGSLHAV [peptide 79, 11] | Responses

Same assay, conditions: A2 Set Peptides; PBMC T cell lines; responding donors/donors tested

Row | Sequence | T1D Donor T cell response | non-T1D Donor T cell response
2 | QQQQKIIAL [compound 91, 12] | 0/5 | 0/2
3 | VLAPRVLRA [compound 126, 16] | 0/4 | 0/2
4 | GLDDIKDLKV [peptide 112, 15] | 3/4 | 0/2
5 | YLKHRLIVV [compound 134, 17] | 0/4 | 0/2
6 | ALANHLIKV [compound 96, 13] | 2/4 | 0/2
7 | YLLEKNRVV [compound 117, 15] | 0/4 | 0/2
8 | AILETAPKEV [compound 129, 17] | 0/4 | 0/2
9 | RLDDLKMTV [compound 82, 11] | 1/5 | 0/2
10 | HLANIVERV [compound 141, 18] | 0/4 | 0/2
11 | AMFDQSQIQEF [compound 116, 15] | 1/4 | 0/2
12 | GLDRLNVTV [peptide 101, 14] | 4/4 | 0/2
13 | KLTENLVAL [compound 92, 12] | 0/5 | 0/2
14 | YINEKNVAL [compound 105, 14] | 0/4 | 0/2
15 | KQMEQISQF [compound 137, 18] | 0/4 | 0/2
16 | AQLENPAAV [compound 97, 13] | 0/4 | 0/2
17 | ALLDQALSNA [compound 111, 15] | 0/4 | 0/2
18 | HQNQLLSSL [compound 143, 18] | 0/4 | 0/2
19 | ALYDNVEKL [compound 89, 12] | 0/4 | 0/2
20 | RVAEVQQVL [compound 107, 14] | 0/5 | 0/2
21 | VLHEGTNFV [compound 104, 14] | 0/4 | 0/2
22 | ALLETVNRL [compound 99, 13] | 0/5 | 0/2
23 | KLQELNYNL [compound 132, 17] | 0/4 | 0/2

Row | Sequence | T1D Donor T cell response | non-T1D Donor T cell response
24 | LLDEEISRV [compound 84, 11] | 0/4 | 0/2
25 | HLMDQPLSV [compound 108, 14] | 0/4 | 0/2
26 | ALMEAIHSA [compound 93, 13] | 1/4 | 0/2
27 | QLSDVAEKL [compound 128, 17] | 0/4 | 0/2
28 | TLDGSLHAV [peptide 79, 11] | 1/5 | 0/2
29 | ALLDVTPKAV [compound 140, 18] | 0/4 | 0/2
30 | YLLEKSRVV [compound 118, 15] | 0/4 | 0/2
31 | ALDGPPIKV [compound 80, 11] | 1/5 | 0/2
32 | LIQDRVAEV [compound 106, 14] | 1/5 | 0/2
33 | RLSDVQIYV [compound 102, 14] | 1/4 | 0/2
34 | ALAEEVEQV [compound 87, 12] | 0/4 | 0/2
35 | LQNPDLVSL [compound 119, 16] | 0/4 | 0/2
36 | HLKALTSEL [compound 114, 15] | 0/5 | 0/2
37 | LLDVPTAAV [compound 81, 11] | 1/5 | 0/2
38 | ELNPKILAL [compound 100, 13] | 0/4 | 0/2
39 | KLIQKNLAT [compound 130, 17] | 0/4 | 0/2
40 | SLAEGLRTV [compound 120, 16] | 0/4 | 0/2
41 | FLKEPALNEA [compound 124, 16] | 0/4 | 0/2
42 | SLIGHLQTL [compound 95, 13] | 1/4 | 0/2
43 | RVIGTLEEV [compound 125, 16] | 0/4 | 0/2
44 | RLYDPTEGMVSV [compound 85, 12] | 0/4 | 0/2
45 | RLQDELVTL [compound 110, 15] | 0/4 | 0/2

Same assay, conditions: HPAP-A2 Pool Peptides; PBMC T cell lines; responding donors/donors tested

Row | Sequence | T1D Donor T cell response | non-T1D Donor T cell response
46 | RVVGTLHLL [compound 168] | 0/4 | 0/4
47 | ALDGPPIKV [compound 164] | 0/4 | 0/4
48 | DVIEKIRYV [compound 159] | 0/4 | 0/4
49 | IIVDIFHGL [compound 170] | 0/4 | 0/4
50 | FLIEEIERL [compound 161] | 0/4 | 0/4
51 | ALLETVNRL [compound 162] | 0/4 | 0/4
52 | KLLESFKI [compound 160] | 0/4 | 0/4
53 | TAISRIYTV [compound 158] | 0/4 | 0/4
54 | ALKPLAAAL [compound 169] | 0/4 | 0/4
55 | VLAFLVHEL [compound 156] | 1/5 | 0/4

Same assay, conditions: MHC-I peptides; superscript E on the peptide; F = verified with C1R-A2 cells

Row | Sequence | T cell recognition by PBMC from a T1D donor
56 | RSAAVLALL | RSAAVLALL ^E,F
57 | AMFDQSQIQEF | AMFDQSQIQEF ^E, F
58 | TLDGSLHAV | TLDGSLHAV ^ E
59 | GLDRLNVTV | GLDRLNVTV ^ E
60 | SLIGHLQTL | SLIGHLQTL ^ E
61 | GLDDIKDLKV | GLDDIKDLKV ^ E
62 | RLDDLKMTV | RLDDLKMTV ^ E
63 | ALANHLIKV | ALANHLIKV ^ E
64 | RLSDVQIYV | RLSDVQIYV ^ E

Same assay, conditions: PTM and unmodified native Pool Peptides (pool PTM 1), 9-mer peptides; PBMC T cell lines; responding donors/donors tested

Row | Sequence | T1D Donor T cell response | non-T1D Donor T cell response
65 | QADFAIEAL [compound 150, non-modified native peptide, pool PTM A2] | 0/4 | 0/3

Same assay, conditions: SEC (Secretory) A2 Peptides Set; PBMC T cell lines; responding donors/donors tested

Row | Sequence | T1D Donor T cell response
66 | GSHLVEALY [compound 172, secretory hormone eluted peptide, pool SEC A2] | 0/4
67 | KEFIAWLV [compound 174, secretory hormone eluted peptide, pool SEC A2] | 0/4

Same assay, conditions: T1D donors, PBMC-derived lines (Figure 5J)

Row | Sequence | Number of donors whose CD8 T cells recognized the peptide (IFN-γ ELISpot)
68 | GLDDIKDLKV [peptide 112, 15] | three of the donors
69 | GLDRLNVTV [peptide 101, 14] | all four donors
